Assay results from ChEMBL document CHEMBL5465560, “Selectivity Literature for EUbOPEN Chemogenomic Library” (2024).
pIC50: −log10 of the molar value.

Legend:
[1] = target: Ribosomal protein S6 kinase alpha-5 (Homo sapiens) (UniProt O75582); test: Selectivity interaction (KinomeScan (DiscoverX)) EUB0001049a RPS6KA5; settings: at 1 µM
[2] = target: Casein kinase I isoform gamma-2 (Homo sapiens) (UniProt P78368); test: Selectivity interaction (Kinase panel (Invitrogen)) EUB0000639a CSNK1G2; settings: at 200 nM
[3] = target: Serine/threonine-protein kinase/endoribonuclease IRE1 (Homo sapiens) (UniProt O75460); test: Selectivity interaction (ActivX KiNativ screen (kinase selectivity in THP-1 cell lysates)) EUB0000639a ERN1; type: subcellular; settings: lysate
Chain of Serine/threonine-protein kinase/endoribonuclease IRE1 (Homo sapiens) (O75460 19-977 limits assumed): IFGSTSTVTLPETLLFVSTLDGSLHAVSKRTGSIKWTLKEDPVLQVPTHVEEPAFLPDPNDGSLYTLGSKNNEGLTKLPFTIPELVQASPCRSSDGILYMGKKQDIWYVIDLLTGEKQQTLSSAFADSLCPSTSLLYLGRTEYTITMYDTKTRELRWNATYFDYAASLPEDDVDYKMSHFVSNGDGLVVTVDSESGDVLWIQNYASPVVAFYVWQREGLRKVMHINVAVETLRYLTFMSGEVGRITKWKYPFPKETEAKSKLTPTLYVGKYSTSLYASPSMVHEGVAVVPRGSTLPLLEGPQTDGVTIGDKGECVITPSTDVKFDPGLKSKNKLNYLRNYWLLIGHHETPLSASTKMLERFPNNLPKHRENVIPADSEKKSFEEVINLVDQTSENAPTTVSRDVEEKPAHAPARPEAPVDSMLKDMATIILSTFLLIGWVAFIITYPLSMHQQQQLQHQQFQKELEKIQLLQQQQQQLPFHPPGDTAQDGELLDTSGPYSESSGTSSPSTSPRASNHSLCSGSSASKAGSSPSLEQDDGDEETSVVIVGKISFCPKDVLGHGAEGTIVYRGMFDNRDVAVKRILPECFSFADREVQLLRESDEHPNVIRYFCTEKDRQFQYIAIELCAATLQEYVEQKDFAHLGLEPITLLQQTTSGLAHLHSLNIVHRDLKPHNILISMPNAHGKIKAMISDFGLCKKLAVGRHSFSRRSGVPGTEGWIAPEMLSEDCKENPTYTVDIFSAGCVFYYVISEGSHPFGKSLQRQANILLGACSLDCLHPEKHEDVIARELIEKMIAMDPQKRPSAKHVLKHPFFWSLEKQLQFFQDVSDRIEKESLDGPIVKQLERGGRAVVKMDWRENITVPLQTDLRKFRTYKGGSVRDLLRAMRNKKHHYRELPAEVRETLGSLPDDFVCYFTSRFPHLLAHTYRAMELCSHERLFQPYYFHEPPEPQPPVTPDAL

[4] = target: Tyrosine-protein kinase JAK1 (Homo sapiens, UniProt P23458); test: Selectivity interaction (ActivX KiNativ screen (kinase selectivity in THP-1 cell lysates)) EUB0000639a JAK1; type: subcellular; settings: lysate, at 0.2 µM
[5] = target: Cyclin-dependent kinase 16 (Homo sapiens) (UniProt Q00536); test: Selectivity interaction (ActivX KiNativ screen (kinase selectivity in THP-1 cell lysates)) EUB0000639a CDK16; type: subcellular; settings: lysate, at 5 µM
[6] = target: Serine/threonine-protein kinase pim-1 (Homo sapiens, UniProt P11309)
Chain of Serine/threonine-protein kinase pim-1 (P11309 whole entry): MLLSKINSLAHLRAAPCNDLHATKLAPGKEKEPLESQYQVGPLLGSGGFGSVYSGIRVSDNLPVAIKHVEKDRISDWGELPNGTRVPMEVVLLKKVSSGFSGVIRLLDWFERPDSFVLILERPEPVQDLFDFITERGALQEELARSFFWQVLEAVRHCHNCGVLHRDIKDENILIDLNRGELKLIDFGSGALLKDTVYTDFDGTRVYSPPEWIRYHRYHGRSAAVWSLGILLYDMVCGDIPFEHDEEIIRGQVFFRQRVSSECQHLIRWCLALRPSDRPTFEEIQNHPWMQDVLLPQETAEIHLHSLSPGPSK

[7] = target: Vascular endothelial growth factor receptor 2 (Homo sapiens, UniProt P35968); test: Selectivity interaction (KinomeScan (DiscoverX)) EUB0000695a KDR; settings: at 100 nM
Chain of Vascular endothelial growth factor receptor 2 (P35968 whole entry): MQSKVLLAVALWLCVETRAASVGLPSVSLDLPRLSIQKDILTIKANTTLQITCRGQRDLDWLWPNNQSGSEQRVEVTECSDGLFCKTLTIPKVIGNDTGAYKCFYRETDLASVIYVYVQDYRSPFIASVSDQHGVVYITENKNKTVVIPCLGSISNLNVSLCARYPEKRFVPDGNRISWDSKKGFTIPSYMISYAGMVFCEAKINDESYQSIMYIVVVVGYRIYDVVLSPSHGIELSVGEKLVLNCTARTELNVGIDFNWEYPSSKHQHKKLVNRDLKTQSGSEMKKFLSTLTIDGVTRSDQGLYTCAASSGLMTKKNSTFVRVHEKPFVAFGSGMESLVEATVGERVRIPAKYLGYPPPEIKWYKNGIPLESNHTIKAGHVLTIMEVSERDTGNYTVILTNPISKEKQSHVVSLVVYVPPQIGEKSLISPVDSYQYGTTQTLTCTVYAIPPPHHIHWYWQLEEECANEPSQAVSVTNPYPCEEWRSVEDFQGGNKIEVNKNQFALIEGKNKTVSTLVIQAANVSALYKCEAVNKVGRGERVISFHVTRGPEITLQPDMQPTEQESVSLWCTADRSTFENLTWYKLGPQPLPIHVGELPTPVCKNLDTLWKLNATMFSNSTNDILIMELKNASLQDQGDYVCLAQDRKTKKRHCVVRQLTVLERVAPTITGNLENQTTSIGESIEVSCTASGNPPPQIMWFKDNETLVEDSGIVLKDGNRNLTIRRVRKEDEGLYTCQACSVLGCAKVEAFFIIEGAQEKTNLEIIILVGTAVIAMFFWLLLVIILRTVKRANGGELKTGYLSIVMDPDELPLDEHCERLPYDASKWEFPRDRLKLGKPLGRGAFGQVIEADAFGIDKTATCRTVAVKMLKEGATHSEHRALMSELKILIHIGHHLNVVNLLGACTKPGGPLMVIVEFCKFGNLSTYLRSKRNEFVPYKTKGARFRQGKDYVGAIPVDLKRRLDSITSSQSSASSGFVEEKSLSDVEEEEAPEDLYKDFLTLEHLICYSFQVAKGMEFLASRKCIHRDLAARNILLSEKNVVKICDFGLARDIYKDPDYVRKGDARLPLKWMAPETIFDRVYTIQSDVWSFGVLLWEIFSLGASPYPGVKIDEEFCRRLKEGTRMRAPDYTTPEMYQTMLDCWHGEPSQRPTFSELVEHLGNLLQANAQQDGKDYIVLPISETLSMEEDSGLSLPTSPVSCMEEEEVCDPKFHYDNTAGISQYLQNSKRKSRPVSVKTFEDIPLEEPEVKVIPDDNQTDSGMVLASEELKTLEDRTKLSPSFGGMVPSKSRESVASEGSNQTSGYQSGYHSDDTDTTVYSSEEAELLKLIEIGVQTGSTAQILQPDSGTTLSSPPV

[8] = target: T1, Receptor-interacting serine/threonine-protein kinase 1 (Homo sapiens) (UniProt Q13546); test: Selectivity interaction (KinomeScan (DiscoverX)) EUB0000595a RIPK1; settings: at 10 µM
T1 sequence (whole entry): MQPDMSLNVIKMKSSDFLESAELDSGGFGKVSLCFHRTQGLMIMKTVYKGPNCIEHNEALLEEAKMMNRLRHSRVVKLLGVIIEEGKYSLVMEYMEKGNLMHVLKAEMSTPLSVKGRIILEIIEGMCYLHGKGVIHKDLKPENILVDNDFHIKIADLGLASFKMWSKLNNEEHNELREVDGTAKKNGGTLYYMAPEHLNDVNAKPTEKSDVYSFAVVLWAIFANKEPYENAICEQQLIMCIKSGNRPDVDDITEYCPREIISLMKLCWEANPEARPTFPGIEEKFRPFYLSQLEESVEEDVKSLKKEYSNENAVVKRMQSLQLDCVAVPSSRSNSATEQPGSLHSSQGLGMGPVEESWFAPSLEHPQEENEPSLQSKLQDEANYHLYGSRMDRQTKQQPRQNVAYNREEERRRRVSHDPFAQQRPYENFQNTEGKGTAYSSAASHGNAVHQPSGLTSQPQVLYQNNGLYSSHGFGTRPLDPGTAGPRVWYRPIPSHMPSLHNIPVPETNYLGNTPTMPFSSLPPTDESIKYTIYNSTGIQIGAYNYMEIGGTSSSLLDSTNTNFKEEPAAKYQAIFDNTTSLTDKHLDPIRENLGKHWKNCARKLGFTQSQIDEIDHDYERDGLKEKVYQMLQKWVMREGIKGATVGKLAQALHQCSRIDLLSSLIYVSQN

[9] = target: Bone morphogenetic protein receptor type-1A (Homo sapiens, UniProt P36894); test: Selectivity interaction (KinomeScan (DiscoverX)) EUB0000229b BMPR1A; settings: at 10 µM
Chain of Bone morphogenetic protein receptor type-1A (P36894 whole entry): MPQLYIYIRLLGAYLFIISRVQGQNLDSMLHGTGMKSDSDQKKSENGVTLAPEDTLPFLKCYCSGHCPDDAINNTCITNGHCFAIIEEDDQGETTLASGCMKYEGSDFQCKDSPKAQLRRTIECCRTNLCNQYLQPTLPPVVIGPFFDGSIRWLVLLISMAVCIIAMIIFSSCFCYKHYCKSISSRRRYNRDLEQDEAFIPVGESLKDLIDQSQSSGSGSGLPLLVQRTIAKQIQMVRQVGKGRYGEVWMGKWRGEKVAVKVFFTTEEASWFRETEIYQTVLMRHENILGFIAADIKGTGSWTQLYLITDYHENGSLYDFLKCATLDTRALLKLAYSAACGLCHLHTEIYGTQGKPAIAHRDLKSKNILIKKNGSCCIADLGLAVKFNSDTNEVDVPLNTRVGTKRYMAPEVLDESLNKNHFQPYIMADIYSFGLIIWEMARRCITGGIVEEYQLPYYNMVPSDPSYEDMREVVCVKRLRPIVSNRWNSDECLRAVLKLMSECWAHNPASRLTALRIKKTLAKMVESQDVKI

[10] = target: Eukaryotic translation initiation factor 2-alpha kinase 1 (Homo sapiens) (UniProt Q9BQI3); test: Selectivity interaction (KinomeScan (DiscoverX)) EUB0001079a EIF2AK1; settings: at 1 µM
[11] = target: Mitogen-activated protein kinase 6 (Homo sapiens) (UniProt Q16659); test: Selectivity interaction (KinomeScan (DiscoverX)) EUB0001079a MAPK6; settings: at 1 µM
[12] = target: Serine/threonine-protein kinase 35 (Homo sapiens) (UniProt Q8TDR2); test: Selectivity interaction (KinomeScan (DiscoverX)) EUB0000092b STK35; settings: at 10 µM
[13] = target: Chromatin remodeling regulator CECR2 (Homo sapiens, UniProt Q9BXF3); test: Selectivity interaction (Human bromodomain panel (DSF assay)) EUB0000233b CECR2
Chain of Chromatin remodeling regulator CECR2 (Q9BXF3 whole entry, looked up): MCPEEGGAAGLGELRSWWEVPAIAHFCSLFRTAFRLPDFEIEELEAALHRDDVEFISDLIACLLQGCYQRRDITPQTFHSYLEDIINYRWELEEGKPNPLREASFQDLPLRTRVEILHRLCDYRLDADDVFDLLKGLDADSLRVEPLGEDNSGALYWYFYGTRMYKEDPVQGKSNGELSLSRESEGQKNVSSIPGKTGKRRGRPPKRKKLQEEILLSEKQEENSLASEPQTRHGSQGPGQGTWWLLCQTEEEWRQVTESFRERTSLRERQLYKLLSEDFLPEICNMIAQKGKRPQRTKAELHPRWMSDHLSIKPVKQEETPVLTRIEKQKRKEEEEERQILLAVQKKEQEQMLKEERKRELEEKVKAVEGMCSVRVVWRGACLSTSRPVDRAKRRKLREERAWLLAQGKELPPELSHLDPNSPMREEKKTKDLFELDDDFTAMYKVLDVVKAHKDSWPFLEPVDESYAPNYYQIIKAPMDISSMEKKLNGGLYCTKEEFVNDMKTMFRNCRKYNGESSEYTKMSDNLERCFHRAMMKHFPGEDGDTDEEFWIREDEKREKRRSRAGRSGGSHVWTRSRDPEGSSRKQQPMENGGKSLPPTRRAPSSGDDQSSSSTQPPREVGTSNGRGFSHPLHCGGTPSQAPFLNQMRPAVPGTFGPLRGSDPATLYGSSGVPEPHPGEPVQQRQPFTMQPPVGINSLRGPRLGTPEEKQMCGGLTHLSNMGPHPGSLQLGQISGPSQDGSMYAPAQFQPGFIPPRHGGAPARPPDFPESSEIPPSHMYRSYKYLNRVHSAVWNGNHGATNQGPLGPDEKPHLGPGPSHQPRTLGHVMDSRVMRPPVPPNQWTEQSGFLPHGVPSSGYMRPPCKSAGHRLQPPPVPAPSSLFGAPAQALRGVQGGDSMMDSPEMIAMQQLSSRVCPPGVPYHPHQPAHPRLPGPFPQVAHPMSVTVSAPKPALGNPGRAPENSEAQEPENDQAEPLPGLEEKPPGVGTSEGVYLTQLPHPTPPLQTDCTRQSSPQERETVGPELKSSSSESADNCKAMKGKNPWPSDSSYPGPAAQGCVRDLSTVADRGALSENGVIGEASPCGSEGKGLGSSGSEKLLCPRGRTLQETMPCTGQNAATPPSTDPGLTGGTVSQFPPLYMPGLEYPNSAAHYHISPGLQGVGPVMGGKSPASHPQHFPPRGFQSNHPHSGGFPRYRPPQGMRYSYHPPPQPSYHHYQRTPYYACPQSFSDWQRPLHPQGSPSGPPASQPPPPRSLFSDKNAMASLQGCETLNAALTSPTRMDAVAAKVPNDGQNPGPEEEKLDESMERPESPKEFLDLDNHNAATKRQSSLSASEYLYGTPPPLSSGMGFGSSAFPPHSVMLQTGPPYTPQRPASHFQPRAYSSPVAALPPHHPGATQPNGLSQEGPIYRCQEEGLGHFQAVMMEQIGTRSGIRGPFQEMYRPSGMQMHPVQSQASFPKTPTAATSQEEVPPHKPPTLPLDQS

[14] = target: Serine/threonine-protein kinase MARK2 (Homo sapiens) (UniProt Q7KZI7); test: Selectivity interaction (Upstate Kinase Profiler service (Millipore)) EUB0000056c MARK2; settings: at 1 µM
[15] = target: Ribosomal protein S6 kinase alpha-3 (Homo sapiens, UniProt P51812); test: Selectivity interaction (ActivX KiNativ screen (ex vivo kinase selectivity in human PBMCs)) EUB0001619a RPS6KA3; type: cell-based; settings: PBMC, at 1 µM
[16] = target: Phosphatidylinositol 4-phosphate 3-kinase C2 domain-containing subunit beta (Homo sapiens) (UniProt O00750); test: Selectivity interaction (KinomeScan (DiscoverX)) EUB0000618a PIK3C2B; settings: at 10 µM
[17] = target: Cyclin-dependent kinase 5/CDK5 activator 1 (Homo sapiens) (UniProt Q00535+Q15078); test: Selectivity interaction (SelectScreen profiling (Invitrogen)) EUB0000607a CDK5; type: protein-complex assay; settings: at 2 µM
[18] = target: Death-associated protein kinase 3 (Homo sapiens) (UniProt O43293); test: Selectivity interaction (SelectScreen profiling (Invitrogen)) EUB0000607a DAPK3; settings: at 2 µM
Chain of Death-associated protein kinase 3 (Homo sapiens) (O43293 whole entry, looked up): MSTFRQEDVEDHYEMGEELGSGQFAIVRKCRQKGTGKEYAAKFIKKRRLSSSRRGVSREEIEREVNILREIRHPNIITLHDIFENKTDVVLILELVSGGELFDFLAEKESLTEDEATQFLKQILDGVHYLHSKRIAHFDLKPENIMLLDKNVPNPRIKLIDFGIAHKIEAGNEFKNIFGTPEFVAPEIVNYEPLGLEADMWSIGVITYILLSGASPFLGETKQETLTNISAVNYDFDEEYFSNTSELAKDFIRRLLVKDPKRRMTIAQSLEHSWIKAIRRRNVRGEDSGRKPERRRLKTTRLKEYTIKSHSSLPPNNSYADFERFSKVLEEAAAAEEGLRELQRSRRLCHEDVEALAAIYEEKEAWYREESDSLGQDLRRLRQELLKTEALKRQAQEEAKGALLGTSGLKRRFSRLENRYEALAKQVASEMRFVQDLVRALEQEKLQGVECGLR

[19] = target: T2, Dual specificity tyrosine-phosphorylation-regulated kinase 2 (Homo sapiens) (UniProt Q92630); test: Selectivity interaction (Kinase panel (DSF assay)) EUB0001558a DYRK2
T2 sequence (whole entry): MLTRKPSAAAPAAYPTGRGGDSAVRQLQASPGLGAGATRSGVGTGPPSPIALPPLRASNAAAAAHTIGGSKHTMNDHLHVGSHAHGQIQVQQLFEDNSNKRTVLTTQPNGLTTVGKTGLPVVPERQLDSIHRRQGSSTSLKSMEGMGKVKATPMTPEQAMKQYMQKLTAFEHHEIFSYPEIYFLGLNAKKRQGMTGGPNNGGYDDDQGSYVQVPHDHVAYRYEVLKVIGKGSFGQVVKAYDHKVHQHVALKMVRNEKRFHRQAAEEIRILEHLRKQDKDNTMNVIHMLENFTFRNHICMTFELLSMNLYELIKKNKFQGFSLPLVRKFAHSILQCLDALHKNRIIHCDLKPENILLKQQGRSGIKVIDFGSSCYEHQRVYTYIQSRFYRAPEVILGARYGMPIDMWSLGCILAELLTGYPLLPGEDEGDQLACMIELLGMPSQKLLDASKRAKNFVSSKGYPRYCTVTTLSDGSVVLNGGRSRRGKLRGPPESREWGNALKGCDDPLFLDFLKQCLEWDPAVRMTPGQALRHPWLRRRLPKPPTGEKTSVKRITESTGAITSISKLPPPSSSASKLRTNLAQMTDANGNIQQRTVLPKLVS

**Q.** How did the % of control [1] turn out when `COc1cc(Nc2nc(C)cc(-c3cnn4nc(OC)ccc34)n2)cc(C(F)(F)F)c1` was run?
**A.** 95%

**Q.** What does the source list for `CC[C@@H]1[C@H](F)C(=O)N[C@@H]1COc1nccc2cc(C(N)=O)c(OC)cc12` [ZIMLOVISERTIB]?
**A.** % of inhibition [2]: 64.8%; % of inhibition ([3]; at 0.01 µM): -5.9%; % of inhibition ([3]; at 0.04 µM): -16.2%; % of inhibition ([3]; at 0.2 µM): -1.2%; % of inhibition ([3]; at 1 µM): -2.9%; % of inhibition ([3]; at 5 µM): -24%; % of inhibition [4]: -7.3%; % of inhibition [5]: 41.7%

**Q.** With `CCc1cccc(CC)c1NC(=O)c1nn(C)c2c1CCc1cnc(Nc3ccc(C(=O)NC4CCN(C)CC4)cc3OC(F)(F)F)nc1-2` as the compound, how does the pIC50 [6] read?
**A.** < 5.00

**Q.** Which % of control [7] does the source give for `Cc1cc(F)c(C(=O)Nc2cccc(-c3nncn3C(C)C)n2)cc1-n1cnc(C2CC2)c1` here?
**A.** 100%

**Q.** Which % of control [8] does the source give for `COCC(=O)NC/C=C/c1ccc2ncnc(Nc3ccc(Oc4ccc(C)nc4)c(C)c3)c2c1` [CP-724714] here?
**A.** 100%

**Q.** `COc1cc(N(C)c2ccnc3ccc(C(F)(F)F)cc23)cc(OC)c1OC` was tested. Which % binding [9] did it give?
**A.** 76%

**Q.** How did the % of control [10] turn out when `Nc1cnc(N2CCc3cc(S(=O)(=O)Nc4c(F)cc(Cl)cc4F)cc(N4CCCC4=O)c32)nc1` [TP-020n] was run?
**A.** 94%

**Q.** What about the % of control [11] of the same compound?
**A.** 100%

**Q.** Which % of control [12] does the source give for `CCC(=O)N1CCN(c2ccc(-n3c(=O)ccc4cnc5ccc(-c6cnc7ccccc7c6)cc5c43)cc2C(F)(F)F)CC1` here?
**A.** 18%

**Q.** How did the dTM [13] turn out when `CN(C)CCCOc1ccc(-c2cc(NCCCn3cccn3)nc(S(C)(=O)=O)n2)cc1` was run?
**A.** 11.1 K

**Q.** How did the % of inhibition [14] turn out when `Cc1ccc(-c2ccc3c(ccc4sc5c(c43)NC[C@@H](C)NC5=O)n2)cn1` was run?
**A.** 6%

**Q.** For `N#Cc1cccc(-c2c[nH]c3ncnc(N4CCOCC4)c23)c1`, which % of inhibition [15] is on record?
**A.** 21%

**Q.** How did the % of control [16] turn out when `O[C@H]1CC[C@H](Nc2ncc3nc(Nc4c(F)cc(F)cc4F)n([C@H]4CCOC4)c3n2)CC1` was run?
**A.** 97%

**Q.** With `CNC(=O)Nc1ccc(-c2nc(N3CC4CCC(C3)O4)c3cnn(C4CCC5(CC4)OCCO5)c3n2)cc1` as the compound, how does the % of inhibition [17] read?
**A.** -4%

**Q.** What about the % of inhibition [18] of the same compound?
**A.** 2%

**Q.** For `CC(C)(O)[C@H](F)CN1Cc2cc(NC(=O)c3cnn4cccnc34)c(N3CCOCC3)cc2C1=O`, which dTM [19] is on record?
**A.** 5 K
